In paper PMC10381486, “Hydantoanabaenopeptins from Lake Kinneret Microcystis Bloom, Isolation, and Structure Elucidation of the Possible Intermediates in the Anabaenopeptins Biosynthesis” (Marine Drugs, 2023):

Tests used:
[1] = target: chymotrypsin (Bos taurus, UniProt P00766); assay: Chymotrypsin inhibition assay (SGGPNA substrate, 96-well plate); format: biochemical; conditions: Tris buffer pH 7.5, 5 min pre-incubation at 37 °C, kinetic absorbance at 405 nm over 30 min
Protocol: […] Assays were performed in a 96-well plate format.
The assay was performed in a Tris buffer (0.6 gr TRIS HCl/100 mL H2O, pH 7.5). The enzyme and the substrate Suc-Gly-Gly-phenylalanine-p-nitroanilide (SGGPNA) were dissolved in the buffer at a concentration of 1 mg/mL. To each well were added 100 μL of buffer, 10 μL of enzyme, and 10 μL of sample. Then, the plate was placed in the spectrophotometer for a 5 min incubation at 37 °C. Thereafter, to each well, 100 μL of substrate solution was added, and the plate was placed in the spectrophotometer for the kinetic measurement of the absorbance intensity over 30 min at a wavelength of 405 nm.

[2] = target: T1, trypsin (Bos taurus, UniProt P00760); assay: Trypsin inhibition assay (BAPNA substrate, 96-well plate); format: biochemical; conditions: Tris buffer pH 7.5, 5 min pre-incubation at 37 °C, kinetic absorbance at 405 nm over 30 min
T1 construct: gene PRSS1
T1 sequence (P00760 24-246): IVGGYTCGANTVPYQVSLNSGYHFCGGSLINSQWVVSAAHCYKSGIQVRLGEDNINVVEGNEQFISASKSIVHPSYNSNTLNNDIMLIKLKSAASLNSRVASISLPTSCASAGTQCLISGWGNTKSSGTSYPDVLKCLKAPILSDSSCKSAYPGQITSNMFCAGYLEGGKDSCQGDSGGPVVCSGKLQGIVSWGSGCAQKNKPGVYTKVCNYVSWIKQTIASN
Protocol: The samples for biological assays were dissolved in DMSO at a concentration of 1 mg/mL and were tested for inhibition of the proteases at a single concentration: 1 […]. Assays were performed in a 96-well plate format.
The assay was performed in a Tris buffer (0.6 g Tris HCl in 100 mL H2O, pH 7.5). Benzoyl-L-arginine-p-nitroanilide hydrochloride (BAPNA), the trypsin substrate, was dissolved at 1 mg/mL in 1:9 DMSO/buffer. The enzyme was dissolved in buffer at 1 mg/mL. To each well were added 100 μL of buffer, 10 μL of enzyme, and 10 μL of sample. The plate was placed in the spectrophotometer at 37 °C. After 5 min, 100 μL of substrate solution was added to each well, and the plate was placed in the spectrophotometer for the kinetic measurement of the absorbance intensity over 30 min at a wavelength of 405 nm.

Q: How did the “inhibition of the serine protease chymotrypsin” value ([1]; single concentration 53.3 μM) turn out when “Dht-CO-cyclo-[Lys-Val-Hty-NMeAla-Phe] (lariat or depsi) [Compound 5, ^1[Dht]-anabaenopeptin A, new anabaenopeptin with dihomotyrosine at position 1]” was run?
A: nonactive

Q: For “hydanto-Dht-[Lys-Val-Hty-NMeAla-Phe] (lariat or depsi) [Compound 6, ^1[Dht]-hydantoanabaenopeptin A, hydantoin derivative of 1[Dht]-anabaenopeptin A]”, which “inhibition of the serine protease chymotrypsin” value ([1]; single concentration 53.3 μM) is on record?
A: nonactive

Q: How did the “inhibition of the serine protease trypsin” value ([2]; single concentration 54.6 μM) turn out when “Phe, NMeAla, Hty, Ile, Lys, and Arg (lariat or depsi) [Compound 3, Hydantoanabaenopeptin F, hydantoin derivative of anabaenopeptin F isolated from Lake Kinneret Microcystis bloom]” was run?
A: nonactive

Q: Which “inhibition of the serine protease chymotrypsin” value ([1]; single concentration 55.1 μM) does the source give for “cyclo-(Phe-NMeAla-Hty-Val-Lys-ε-NH)- (lariat or depsi) [Compound 1, Hydantoanabaenopeptin A, hydantoin derivative of anabaenopeptin A isolated from Lake Kinneret Microcystis bloom]” here?
A: nonactive

Q: Which “inhibition of the serine protease trypsin” value ([2]; single concentration 55.6 μM) does the source give for Hydantoanabaenopeptin B [Compound 2] here?
A: nonactive

Q: How did the “inhibition of the serine protease chymotrypsin” value ([1]; single concentration 54.2 μM) turn out when Hydanto-oscillamide Y [Compound 4] was run?
A: nonactive
